From publication PMC11174926, “Composition Characterization of Cinnamomum osmophloeum Kanehira Hydrosol and Its Enhanced Effects on Erectile Function” (Plants, 2024)

How the values were obtained:
[1] = biological target: T1, PDE5 (Homo sapiens, UniProt O76074); experiment: PDE5 inhibition assay (PDE5A1 assay kit); type: biochemical
T1 construct: purchased BPS Bioscience
Experimental: The PDE5 assay was determined by using a PDE5A1 assay kit (BPS Bioscience, San Diego, CA, USA). The experiments were conducted following the manufacturer’s protocol. Sildenafil (10 nM) was used as a positive control.

[2] = tested on: Hep3B cells; experiment: Cytotoxicity, MTT assay; type: cell-based; details: 200 µM, 24 h
Experimental: Figure S19. NOESY spectrum of 2-(2-hydroxyphenyl)oxetan-3-ol (7).
Figure S20. Cytotoxicity of CO hydrosol and its compounds on Hep3B. […]
trans-PO: trans-phenyloxetan-3-ol; cis-PO: cis-phenyloxetan-3-ol; trans-CA: trans- […]
The Hep3B cells were maintained in Dulbecco’s Modified Eagle medium (DMEM; HyClone,Washington, DC, US), supplemented with 10% fetal bovine sera(FBS; Gibco,Waltham, MA, US), 1 mM sodium pyruvate (Corning), and 1% […]
penicillin/streptomycin (Corning) at 37 ℃ in a humidified atmosphere of 5% CO2. Cell viability was measured using a colorimetric MTT assay. Cells were seeded in 96-well plates at a density of 1 × 1 0 4 cells/well. Stock solutions of samples in dimethyl sulfoxide (DMSO; Sigma-Aldrich) were stored in the dark at 4 ℃. Appropriate dilutions were prepared on the day of the experiments. […]
exceed 0.25% (v/v). After 24 h incubated with samples, the culture medium was removed and replaced with fresh medium containing 0.5 mg/mL of MTT (Sigma-Aldrich) for 1 h. The supernatant was removed and added 100 µL DMSO to dissolve formazan. Absorption at 570 nm for each well was measured using an ELISA microplate reader (BioTeck Instruments, Winooski, VT, USA).

[3] = tested on: PDE5; set-up: method as in PMID 18778098; details: cited from earlier work

Row | Compound | IC50 [1] | inhibition at 0.1 µM ([1]; read-out: PDE5 inhibition rate) | inhibition at 0.5 µM ([1]; read-out: PDE5 inhibition rate) | inhibition at 1 µM ([1]; read-out: PDE5 inhibition rate) | inhibition at 5 µM ([1]; 5 µM, read-out: PDE5 inhibition rate) | inhibition at 10 µM ([1]; read-out: PDE5 inhibition rate) | cytotoxicity [2] | inhibition at 20 µM ([1]; 20 µM, read-out: PDE5 inhibition rate) | IC50 [3] | PDE5 inhibition rate ([3]; 10 µM)
1 | O[C@H]1CO[C@H]1c1ccccc1 (relative stereo) [cis-phenyloxetan-3-ol] | 3.4 µM | 10.8% | 27.1% | 38.1% | 52.1% | 61.9% | no cytotoxicity | – | – | –
2 | O[C@@H]1CO[C@H]1c1ccccc1 (relative stereo) [trans-phenyloxetan-3-ol] | 4.37 µM | 11.5% | 26.1% | 36.7% | – | 58.4% | no cytotoxicity | 65.3% | – | –
3 | COc1ccc(-c2oc3c(CC=C(C)C)c(O[C@@H]4O[C@H](CO)[C@@H](O)[C@H](O)[C@H]4O)cc(O)c3c(=O)c2O[C@@H]2O[C@@H](C)[C@H](O)[C@@H](O)[C@H]2O)cc1 [icariin] | – | – | – | – | – | – | – | – | ~5.9 µM | –
4 | O=C/C=C/c1ccccc1 [trans-cinnamaldehyde] | – | – | – | – | – | – | – | – | – | less than 20%
